Our source for the binary diffusion coefficient values is the NIST ThermoML archive (doi:10.1021/je7000254).

Structures are written as SMILES.

This data set in a line: xn = mol fraction of the nth substance listed. The following applies: Fluid (supercritical or subcritical phases), Taylor-Aris chromatographic method, x1 = 0.

Take `Nc1ccccc1` [aniline] + O=C=O: the binary diffusion coefficient amounted to 1.02e-08 m2/s (313.16 K, 15000 kPa); 9.75e-09 m2/s (313.16 K, 20000 kPa); 9.06e-09 m2/s (313.16 K, 25000 kPa); 8.43e-09 m2/s (313.16 K, 30000 kPa); 7.76e-09 m2/s (313.16 K, 35000 kPa); 1.18e-08 m2/s (323.16 K, 15000 kPa). The binary diffusion coefficient was 1.08e-08 m2/s (323.16 K, 20000 kPa); 9.66e-09 m2/s (323.16 K, 25000 kPa); 9.1e-09 m2/s (323.16 K, 30000 kPa); 8.7e-09 m2/s (323.16 K, 35000 kPa); 1.33e-08 m2/s (333.16 K, 15000 kPa); 1.19e-08 m2/s (333.16 K, 20000 kPa). For the same compound, the binary diffusion coefficient was found to be 1.1e-08 m2/s (333.16 K, 25000 kPa); 1.02e-08 m2/s (333.16 K, 30000 kPa); 9.47e-09 m2/s (333.16 K, 35000 kPa).
`Cc1cc(C)cc(C)c1` [1,3,5-trimethylbenzene] + O=C=O: the binary diffusion coefficient worked out at 1.04e-08 m2/s (313.16 K, 15000 kPa); 9.15e-09 m2/s (313.16 K, 20000 kPa); 8.21e-09 m2/s (313.16 K, 25000 kPa); 7.78e-09 m2/s (313.16 K, 30000 kPa); 7.46e-09 m2/s (313.16 K, 35000 kPa); 1.19e-08 m2/s (323.16 K, 15000 kPa). Besides, the binary diffusion coefficient (323.16 K, 20000 kPa) was determined as 1.11e-08 m2/s; the binary diffusion coefficient (323.16 K, 25000 kPa) amounted to 9.33e-09 m2/s; the binary diffusion coefficient (323.16 K, 30000 kPa) was determined as 9.23e-09 m2/s; the binary diffusion coefficient (323.16 K, 35000 kPa) stood at 8.6e-09 m2/s; the binary diffusion coefficient (333.16 K, 15000 kPa) is 1.42e-08 m2/s; the binary diffusion coefficient (333.16 K, 20000 kPa) is 1.23e-08 m2/s. For the same compound, the binary diffusion coefficient is 1.15e-08 m2/s (333.16 K, 25000 kPa); 1.04e-08 m2/s (333.16 K, 30000 kPa); 9.89e-09 m2/s (333.16 K, 35000 kPa).
`C=Cc1ccccc1` [styrene] + O=C=O: the binary diffusion coefficient reads like this: (313.16 K, 15000 kPa) 1.19e-08 m2/s; (313.16 K, 20000 kPa) 1.08e-08 m2/s; (313.16 K, 25000 kPa) 9.58e-09 m2/s; (313.16 K, 30000 kPa) 8.74e-09 m2/s; (313.16 K, 35000 kPa) 8.27e-09 m2/s; (323.16 K, 15000 kPa) 1.32e-08 m2/s. Besides, the binary diffusion coefficient runs as follows: (323.16 K, 20000 kPa) 1.12e-08 m2/s; (323.16 K, 25000 kPa) 1.06e-08 m2/s; (323.16 K, 30000 kPa) 9.2e-09 m2/s; (323.16 K, 35000 kPa) 8.77e-09 m2/s; (333.16 K, 15000 kPa) 1.55e-08 m2/s; (333.16 K, 20000 kPa) 1.41e-08 m2/s. The binary diffusion coefficient (333.16 K, 25000 kPa) stood at 1.22e-08 m2/s; the binary diffusion coefficient (333.16 K, 30000 kPa) amounted to 1.09e-08 m2/s; the binary diffusion coefficient (333.16 K, 35000 kPa) was determined as 1.02e-08 m2/s.
